Results as given in ChEMBL document CHEMBL1777706, “Discovery of selective and orally available spiro-3-piperidyl ATP-competitive MK2 inhibitors” (Bioorg Med Chem Lett, 2011).
Calls of active or inactive are those of the source. No cut-off for these calls is given here.

How the values were obtained:
[1] = target: T1, MAP kinase-activated protein kinase 2 (Homo sapiens, UniProt P49137); assay: Inhibition of MK2 pretreated for 30 mins before fluorescein labeled substrate peptide addition measured after 2 hrs by IMAP assay
[2] = target: T1, MAP kinase-activated protein kinase 2; assay: Inhibition of MK2 in LPS-stimulated human THP1 cells assessed as inhibition of Hsp27 phosphorylation pretreated 60 mins before LPS challenge measured after 10 mins; type: cell-based, THP-1
[3] = target: Mitogen-activated protein kinase 1 (Homo sapiens) (UniProt P28482); assay: Inhibition of ERK2 at 1 uM
[4] = Inhibition of p38
[5] = target: T2, Serine/threonine-protein kinase 17A (Homo sapiens) (UniProt Q9UEE5); assay: Inhibition of DRAK1 at 1 uM
T2 sequence (whole entry): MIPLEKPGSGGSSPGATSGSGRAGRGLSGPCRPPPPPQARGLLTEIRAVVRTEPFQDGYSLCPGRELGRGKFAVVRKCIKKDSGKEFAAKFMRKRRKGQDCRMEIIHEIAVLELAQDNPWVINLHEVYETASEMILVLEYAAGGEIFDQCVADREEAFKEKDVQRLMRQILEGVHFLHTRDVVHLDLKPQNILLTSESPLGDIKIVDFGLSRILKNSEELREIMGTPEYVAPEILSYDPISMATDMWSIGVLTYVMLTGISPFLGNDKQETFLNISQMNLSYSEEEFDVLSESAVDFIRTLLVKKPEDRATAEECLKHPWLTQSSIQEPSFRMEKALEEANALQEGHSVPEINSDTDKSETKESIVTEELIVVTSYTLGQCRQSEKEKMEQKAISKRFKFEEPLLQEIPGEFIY

[6] = target: Mitogen-activated protein kinase 3 (Homo sapiens) (UniProt P27361); assay: Inhibition of ERK1 at 1 uM
[7] = target: Serine/threonine-protein kinase pim-3 (Homo sapiens) (UniProt Q86V86); assay: Inhibition of PIM3 at 1 uM
[8] = target: Serine/threonine-protein kinase Chk2 (Homo sapiens) (UniProt O96017); assay: Inhibition of CHK2 at 1 uM
PBMC = assay: Antiinflammatory activity in human PBMC cells assessed as inhibition of LPS-induced TNFalpha production pretreated 30 mins before LPS challenge measured after 4 hrs by ELISA; type: functional, cell-based
[9] = target: Serine/threonine-protein kinase pim-1 (Homo sapiens) (UniProt P11309); assay: Inhibition of PIM1 at 1 uM
THP-1 = assay: Antiinflammatory activity in human THP1 cells assessed as inhibition of LPS-induced TNFalpha production pretreated 30 mins before LPS challenge measured after 4 hrs; type: functional, cell-based

Mitogen-activated protein kinase 1 (Homo sapiens), sequence (P28482 whole entry, looked up): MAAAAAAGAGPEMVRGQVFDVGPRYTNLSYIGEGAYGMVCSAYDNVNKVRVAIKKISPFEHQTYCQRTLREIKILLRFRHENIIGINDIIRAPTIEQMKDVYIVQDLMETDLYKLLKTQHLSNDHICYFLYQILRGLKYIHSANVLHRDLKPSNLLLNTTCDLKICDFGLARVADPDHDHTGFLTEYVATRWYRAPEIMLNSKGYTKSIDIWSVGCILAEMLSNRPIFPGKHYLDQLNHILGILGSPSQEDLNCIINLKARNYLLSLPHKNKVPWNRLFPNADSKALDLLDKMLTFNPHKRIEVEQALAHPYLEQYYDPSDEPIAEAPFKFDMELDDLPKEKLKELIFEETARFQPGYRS
Serine/threonine-protein kinase pim-1 (Homo sapiens), sequence (P11309 whole entry, looked up): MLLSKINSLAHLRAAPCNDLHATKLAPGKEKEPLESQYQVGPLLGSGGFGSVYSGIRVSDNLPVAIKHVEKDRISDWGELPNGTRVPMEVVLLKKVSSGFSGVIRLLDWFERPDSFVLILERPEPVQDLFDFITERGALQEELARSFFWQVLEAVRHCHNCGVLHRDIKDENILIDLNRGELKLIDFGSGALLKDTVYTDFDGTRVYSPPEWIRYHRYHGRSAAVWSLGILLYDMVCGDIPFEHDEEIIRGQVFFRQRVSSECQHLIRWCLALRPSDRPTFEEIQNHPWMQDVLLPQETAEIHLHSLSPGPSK
Serine/threonine-protein kinase Chk2 (Homo sapiens), sequence (O96017 whole entry): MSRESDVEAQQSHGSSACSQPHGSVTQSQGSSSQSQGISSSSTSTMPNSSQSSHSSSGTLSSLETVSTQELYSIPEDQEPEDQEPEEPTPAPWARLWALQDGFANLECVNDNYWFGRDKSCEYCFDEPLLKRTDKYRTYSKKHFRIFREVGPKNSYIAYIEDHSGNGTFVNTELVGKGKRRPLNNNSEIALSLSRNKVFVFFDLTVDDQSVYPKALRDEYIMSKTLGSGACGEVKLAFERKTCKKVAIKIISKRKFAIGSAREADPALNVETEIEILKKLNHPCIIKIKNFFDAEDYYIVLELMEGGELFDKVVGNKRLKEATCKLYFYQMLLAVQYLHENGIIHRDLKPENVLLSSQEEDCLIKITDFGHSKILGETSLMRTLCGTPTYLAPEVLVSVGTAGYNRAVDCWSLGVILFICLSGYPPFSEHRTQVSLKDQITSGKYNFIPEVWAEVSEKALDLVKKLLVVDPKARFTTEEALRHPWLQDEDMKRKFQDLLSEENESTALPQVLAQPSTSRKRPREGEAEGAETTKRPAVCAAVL
T1 sequence (P49137 whole entry): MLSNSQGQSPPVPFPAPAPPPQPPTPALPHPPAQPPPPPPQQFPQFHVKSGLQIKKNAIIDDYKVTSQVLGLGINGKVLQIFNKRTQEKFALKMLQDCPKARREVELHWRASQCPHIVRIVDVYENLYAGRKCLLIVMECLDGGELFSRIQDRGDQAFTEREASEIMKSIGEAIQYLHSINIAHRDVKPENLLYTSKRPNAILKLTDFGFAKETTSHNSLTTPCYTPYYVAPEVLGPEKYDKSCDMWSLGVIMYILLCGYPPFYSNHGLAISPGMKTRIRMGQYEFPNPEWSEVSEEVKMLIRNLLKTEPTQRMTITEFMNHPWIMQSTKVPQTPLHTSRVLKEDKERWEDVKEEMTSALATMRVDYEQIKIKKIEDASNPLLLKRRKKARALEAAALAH
Mitogen-activated protein kinase 3 (Homo sapiens), sequence (P27361 whole entry): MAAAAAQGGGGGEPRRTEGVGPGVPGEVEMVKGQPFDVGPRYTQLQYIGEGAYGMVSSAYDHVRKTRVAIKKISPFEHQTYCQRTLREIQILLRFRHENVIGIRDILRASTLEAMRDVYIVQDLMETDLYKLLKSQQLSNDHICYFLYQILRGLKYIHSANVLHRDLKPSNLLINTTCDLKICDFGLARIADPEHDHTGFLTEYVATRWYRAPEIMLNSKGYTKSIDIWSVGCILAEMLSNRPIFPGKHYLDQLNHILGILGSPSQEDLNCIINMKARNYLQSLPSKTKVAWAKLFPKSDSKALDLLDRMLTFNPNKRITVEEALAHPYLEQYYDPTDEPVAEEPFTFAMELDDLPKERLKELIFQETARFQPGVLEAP

SMILES	EC50 [1] [µM]	EC50 [2] [µM]	inhibition [3] [%]	inhibition [4]	inhibition [5] [%]	inhibition [6] [%]	inhibition [7] [%]	inhibition [8] [%]	inhibition [9] [%]	EC50 (THP-1) [µM]	EC50 (PBMC) [µM]
O=C1NC[C@]2(CCCNC2)c2[nH]c(-c3ccnc(-c4cccnc4)n3)cc21	0.288	5.8	> 80	inactive	> 80	> 80	> 80	> 80	> 80	8.7	4.3
COc1cncc(-c2nccc(-c3cc4c([nH]3)C3(CCNCC3)CNC4=O)n2)c1	0.0069	–	> 80	inactive	> 80	> 80	> 80	> 80	> 80	> 10	–
CC(=O)c1cccc(-c2nccc(-c3cc4c([nH]3)C3(CCNCC3)CNC4=O)n2)c1	0.011	–	> 80	inactive	> 80	> 80	> 80	> 80	> 80	6.2	–
Nc1ccc(-c2nccc(-c3cc4c([nH]3)C3(CCNCC3)CNC4=O)n2)cn1	0.015	–	> 80	inactive	> 80	> 80	> 80	> 80	> 80	> 10	–
CC(C)c1cccc(-c2nccc(-c3cc4c([nH]3)C3(CCNCC3)CNC4=O)n2)c1	0.112	–	> 80	inactive	> 80	> 80	> 80	> 80	> 80	> 10	–
Nc1ncc(-c2nccc(-c3cc4c([nH]3)C3(CCNCC3)CNC4=O)n2)cn1	0.005	–	> 80	inactive	> 80	> 80	> 80	> 80	> 80	> 10	–
O=C1NCC2(CCOCC2)c2[nH]c(-c3ccnc(-c4ccc5c(c4)OCO5)n3)cc21	0.724	–	> 80	inactive	> 80	> 80	> 80	> 80	> 80	> 10	–
O=C1NCCc2[nH]c(-c3ccnc(-c4ccccc4F)c3)cc21	–	–	–	inactive	> 80	–	> 80	> 80	> 80	9.1	–
O=C1NCC2(CCNCC2)c2[nH]c(-c3ccnc(-c4cc(Cl)cc(Cl)c4)n3)cc21	0.0045	–	> 80	inactive	> 80	> 80	> 80	> 80	> 80	6.3	–
CCC(=O)Nc1ccc(-c2nccc(-c3cc4c([nH]3)C3(CCNCC3)CNC4=O)n2)cn1	0.0062	–	> 80	inactive	> 80	> 80	> 80	> 80	> 80	> 10	–
O=C1NCC2(CCNCC2)c2[nH]c(-c3ccnc(-c4ccc(C(F)(F)F)cc4)n3)cc21	0.0069	–	> 80	inactive	> 80	> 80	> 80	> 80	> 80	6.3	–
O=C1NCC2(CCNCC2)c2[nH]c(-c3ccnc(-c4cccnc4)n3)cc21	0.0011	–	> 80	inactive	> 80	> 80	> 80	> 80	> 80	> 10	–
CC(C)(C)c1ccc(-c2nccc(-c3cc4c([nH]3)C3(CCNCC3)CNC4=O)n2)cc1	0.0062	–	> 80	inactive	> 80	> 80	> 80	> 80	> 80	5.9	–

Now those with a lower EC50 (THP-1), led by results:

EC50 [1] [µM]	EC50 [2] [µM]	inhibition [3] [%]	inhibition [4]	inhibition [5] [%]	inhibition [6] [%]	inhibition [7] [%]	inhibition [8] [%]	inhibition [9] [%]	EC50 (THP-1) [µM]	SMILES	EC50 (PBMC) [µM]
0.126	2.3	> 80	inactive	> 80	> 80	> 80	> 80	> 80	2.2	COc1cncc(-c2nccc(-c3cc4c([nH]3)[C@@]3(CCCNC3)CNC4=O)n2)c1	> 10
0.0083	–	> 80	inactive	> 80	> 80	> 80	> 80	> 80	1.4	O=C1NCC2(CCNCC2)c2[nH]c(-c3ccnc(-c4cccc(F)c4)n3)cc21	–
0.01	–	> 80	inactive	> 80	> 80	> 80	> 80	> 80	4.9	O=C1NCC2(CCNCC2)c2[nH]c(-c3ccnc(-c4ccc5c(c4)OCCCO5)n3)cc21	–
–	–	> 80	inactive	> 80	> 80	> 80	> 80	> 80	4.8	O=C1NCC2(CCNCC2)c2[nH]c(-c3ccnc(-c4cnc5ccccc5c4)n3)cc21	–
0.029	–	> 80	inactive	> 80	> 80	> 80	> 80	> 80	4.2	O=C1NCC2(CCNCC2)c2[nH]c(-c3ccnc(-c4ccccc4F)n3)cc21	–
0.015	–	> 80	inactive	> 80	> 80	> 80	> 80	> 80	4.2	O=C1NCC2(CCNCC2)c2[nH]c(-c3ccnc(-c4cccc(C(F)(F)F)c4)n3)cc21	–
0.0051	–	> 80	inactive	> 80	> 80	> 80	> 80	> 80	3.6	O=C1NCC2(CCNCC2)c2[nH]c(-c3ccnc(-c4ccc5ccccc5c4)n3)cc21	–
0.0049	–	> 80	inactive	> 80	> 80	> 80	> 80	> 80	2.6	O=C1NCC2(CCNCC2)c2[nH]c(-c3ccnc(-c4cnc(NC5CCCC5)nc4)n3)cc21	–
0.0098	–	> 80	inactive	> 80	> 80	> 80	> 80	> 80	5	CC(=O)c1ccc(-c2nccc(-c3cc4c([nH]3)C3(CCNCC3)CNC4=O)n2)cc1	–
